Assay results reported in patent US8957062B2, “Substituted cyclopropyl compounds, compositions containing such compounds and methods of treatment” (Merck Sharp & Dohme Corp., priority 2011, dated 2015).

These compounds were tested against T1, human GPR119 (Homo sapiens, UniProt Q8TDV5) (assay: Measurement of GPR119 signaling (cAMP assay) in cells stably transfected with human GPR119). Conditions: cAMP stimulation; read-out: GPR119 HumC EC50.
T1 sequence (Q8TDV5 1-308 limits assumed): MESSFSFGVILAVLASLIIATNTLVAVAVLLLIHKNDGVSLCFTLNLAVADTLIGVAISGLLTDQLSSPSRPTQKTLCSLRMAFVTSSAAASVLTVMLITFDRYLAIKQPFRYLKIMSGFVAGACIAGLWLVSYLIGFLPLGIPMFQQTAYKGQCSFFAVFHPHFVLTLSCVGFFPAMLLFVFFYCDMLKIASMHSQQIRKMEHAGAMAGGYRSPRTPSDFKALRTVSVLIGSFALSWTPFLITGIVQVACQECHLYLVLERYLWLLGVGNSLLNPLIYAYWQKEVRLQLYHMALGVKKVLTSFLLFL
Assay type: cell-based
Method: Measurement of GPR119 Signaling (Cyclic AMP (cAMP) Assay)
The adenylate cyclase assay was constructed following the LANCE™ cAMP Kit (Perkin Elmer, AD0264) instructions.
The reaction was stopped by incubating with the supplied detection buffer containing the europium chelate of the Eu-SA/Biotin-cAMP tracer for 3 hours. The assay was performed in duplicate in a 384 well plate for duplicate plates and fluorescence was measured at 665 nm. Basal activity was determined using a DMSO control and maximum response was defined as cAMP stimulation produced by an internal agonist control. Standard cAMP concentrations were assayed concurrently for conversion of fluorescence signal to cAMP level. The data was analyzed using 4-parameter curve fit in Microsoft Excel.
Measurement of GPR119 Signaling (cAMP Homogenous Time Resolved Fluorescence (HTRF) Assay)
Chinese hamster ovary (CHO) cell lines stably transfected with the permissive guanine nucleotide binding protein alpha 15 (Gα15) and murine GPR119 were maintained in DMEM media containing FBS, penicillin-streptomycin, puromycin, and G418 (geneticin). […] Agonist activation of the GPR119 receptor was measured in receptor transfected cells described above, treated with compounds of this invention, using a commercial homogenous time resolved fluorescence (HTRF) kit for measurement of cAMP (CisBio, Bedford, Mass.). The assay was performed in 96-well half-volume plates (murine) or 384-well plates (human) following the manufacturers instructions. Briefly, suspended cells were incubated with a dose titration of test compound at RT for 60 min, lysed, and incubated with HTRF reagents for an additional 60 min. The plate was read using an Envision multilabel reader (Perkin Elmer) adjusted to read time resolved fluorescence and the cAMP concentrations were extrapolated from a cAMP calibration curve. […] The concentration of test compound required to stimulate a half-maximal response (EC50), and efficacy as compared to an internal agonist control, was determined from a sigmoidal 4-parameter curve fit of the resulting plot of normalized activity versus compound concentration.

Q: With `Cc1cc(OCC[C@@H]2C[C@@H]2C2CCN(c3nc(C(C)C)no3)CC2)ccc1CC(=O)N1CCC1` [Example 102] as the compound, how does the EC50 read?
A: 1.1 nM

Q: How did the EC50 turn out when `CC(C)c1noc(N2CCC([C@H]3C[C@H]3CCOc3ccc(CC(=O)N4CCC4)c(Cl)c3)CC2)n1` [Example 103] was run?
A: 0.58 nM

Q: For `COCc1noc(N2CCC([C@H]3C[C@H]3CCOc3ccc(CC(=O)N4CCC4)c(Cl)c3)CC2)n1` [Example 104], which EC50 is on record?
A: 2.6 nM

Q: How did the EC50 turn out when `CC(C)c1noc(N2CCC([C@H]3C[C@H]3CCOc3ccc(CC(=O)N4CCC4)c(C#N)c3)CC2)n1` [Example 105] was run?
A: 2 nM

Q: How did the EC50 turn out when `Cc1cc(OCC[C@@H]2C[C@@H]2C2CCN(c3nc(C(C)C)no3)CC2)ccc1CC(=O)N(C)C` [Example 106] was run?
A: 3.4 nM

Q: How did the EC50 turn out when `COCc1noc(N2CCC([C@H]3C[C@H]3CCOc3ccc(CC(=O)N(C)C)c(C)c3)CC2)n1` [Example 107] was run?
A: 5.2 nM

Q: With `CC(C)c1noc(N2CCC([C@H]3C[C@H]3CCOc3cc(F)c(CC(=O)N4CCC4)c(F)c3)CC2)n1` [Example 109] as the compound, how does the EC50 read?
A: 0.24 nM

Q: Which EC50 does the source give for `CC(C)c1noc(N2CCC([C@H]3C[C@H]3CCOc3cc(F)c(CC(=O)N4CC(F)C4)c(F)c3)CC2)n1` [Example 110] here?
A: 0.12 nM

Q: Which EC50 does the source give for `CC(C)c1noc(N2CCC([C@H]3C[C@H]3CCOc3cc(F)c(CC(=O)N(C)C)c(F)c3)CC2)n1` [Example 111] here?
A: 0.26 nM

Q: For `CC(C)c1noc(N2CCC([C@H]3C[C@H]3CCOc3cc(F)c(CC(=O)N4CC(C)(O)C4)c(F)c3)CC2)n1` [Example 112], which EC50 is on record?
A: 2.4 nM

Q: How did the EC50 turn out when `COC1CN(C(=O)Cc2c(F)cc(OCC[C@@H]3C[C@@H]3C3CCN(c4nc(C(C)C)no4)CC3)cc2F)C1` [Example 113] was run?
A: 0.33 nM

Q: With `CC(C)c1noc(N2CCC([C@H]3C[C@H]3CCOc3cc(F)c(CC(=O)N4CCOCC4)c(F)c3)CC2)n1` [Example 114] as the compound, how does the EC50 read?
A: 0.19 nM

Same assay, conditions: stated in the example text without 'GPR119'; read-out: Human EC50

Q: With `CC(C)c1noc(N2CCC([C@H]3C[C@H]3CCOc3ccc(CC(=O)N4CCC4)cc3F)CC2)n1` [Example 101, 4-((1R,2S)-2-{2-[4-(2-azetidin-1-yl-2-oxoethyl)-2-fluorophenoxy]ethyl}cyclopropyl)-1-(3-isopropyl-1,2,4-oxadiazol-5-yl)piperidine] as the compound, how does the EC50 read?
A: 5.3 nM

Same assay, conditions: stated in the example text; cAMP stimulation, human GPR119; read-out: GPR119 Human EC50

Q: With `CC(C)c1noc(N2CCC([C@H]3C[C@H]3CCOc3ccc(-n4cnnn4)cc3)CC2)n1` [Example 98, 5-(4-((1R,2S)-2-(2-(4-(1H-tetrazol-1-yl)phenoxy)ethyl)cyclopropyl)piperidin-1-yl)-3-isopropyl-1,2,4-oxadiazole] as the compound, how does the EC50 read?
A: 11.8 nM

Q: How did the EC50 turn out when `CC(C)c1noc(N2CCC([C@H]3C[C@H]3CCOc3ccc(CC(=O)N4CCC4)cc3)CC2)n1` [Example 99, 4-[(1R,2S)-2-{2-[4-(2-azetidin-1-yl-2-oxoethyl)phenoxy]ethyl}cyclopropyl]-1-[3-(1-methylethyl)-1,2,4-oxadiazol-5-yl]piperidine] was run?
A: 1.8 nM

Q: With `CC(C)c1noc(N2CCC([C@H]3C[C@H]3CCOc3ccc(CC(=O)N4CC(F)C4)c(F)c3)CC2)n1` [Example 100, 4-[(1R,2S)-2-(2-{3-fluoro-4-[2-(3-fluoroazetidin-1-yl)-2-oxoethyl]phenoxy}ethyl)cyclopropyl]-1-(3-isopropyl-1,2,4-oxadiazol-5-yl)piperidine] as the compound, how does the EC50 read?
A: 0.4 nM

Q: How did the EC50 turn out when `CC(C)c1noc(N2CCC([C@H]3C[C@H]3CCOc3cc(F)c(CC(=O)N4CC(O)C4)c(F)c3)CC2)n1` [Example 108, 1-[(2,6-difluoro-4-{2-[(1S,2R)-2-{1-[3-(1-methylethyl)-1,2,4-oxadiazol-5-yl]piperidin-4-yl}cyclopropyl]ethoxy}phenyl)acetyl]azetidin-3-ol] was run?
A: 0.96 nM

Q: How did the EC50 turn out when `COCc1noc(N2CCC([C@H]3C[C@H]3CCOc3ccc(CC(=O)N4CCC4)c(F)c3)CC2)n1` [Example 115, 4-[(1R,2S)-2-{2-[4-(2-azetidin-1-yl-2-oxoethyl)-3-fluorophenoxy]ethyl}cyclopropyl]-1-[3-(methoxymethyl)-1,2,4-oxadiazol-5-yl]piperidine] was run?
A: 5.8 nM

Q: For `COCc1noc(N2CCC([C@H]3C[C@H]3CCOc3cc(F)c(CC(=O)N4CC(F)C4)c(F)c3)CC2)n1` [Example 116, 4-[(1R,2S)-2-(2-{3,5-difluoro-4-[2-(3-fluoroazetidin-1-yl)-2-oxoethyl]phenoxy}ethyl)cyclopropyl]-1-[3-(methoxymethyl)-1,2,4-oxadiazol-5-yl]piperidine], which EC50 is on record?
A: 1.4 nM

Same assay, conditions: table column; cAMP stimulation, human GPR119; read-out: GPR119 Human EC50

Q: For `CC(C)c1noc(N2CCC([C@H]3C[C@H]3CCOc3ccc(C(=O)C4CC4)c(F)c3)CC2)n1` [Example 117], which EC50 is on record?
A: 0.6 nM

Q: With `Cc1nc(C#N)cc(OCC[C@@H]2C[C@@H]2C2CCN(c3nc(C(C)C)no3)CC2)n1` [Example 118] as the compound, how does the EC50 read?
A: 0.4 nM

Q: How did the EC50 turn out when `CC(C)c1noc(N2CCC([C@H]3C[C@H]3CCOc3ccc(S(C)(=O)=O)c(F)c3)CC2)n1` [Example 119] was run?
A: 1.3 nM

Q: `CC(C)c1noc(N2CCC([C@H]3C[C@H]3CCOc3cc(F)c(C(=O)C4CC4)c(F)c3)CC2)n1` [Example 120] was tested. Which EC50 did it give?
A: 0.1 nM

Q: `CCCC(=O)c1c(F)cc(OCC[C@@H]2C[C@@H]2C2CCN(c3nc(C(C)C)no3)CC2)cc1F` [Example 121] was tested. Which EC50 did it give?
A: 0.1 nM

Q: How did the EC50 turn out when `CC(C)c1noc(N2CCC([C@H]3C[C@H]3CCOc3cc(F)c(C(=O)NC(C)(C)CO)c(F)c3)CC2)n1` [Example 122] was run?
A: 10 nM

Q: Which EC50 does the source give for `CC(C)c1noc(N2CCC([C@H]3C[C@H]3CCOc3ccc(S(C)(=O)=O)cc3F)CC2)n1` [Example 123] here?
A: 3.8 nM

Q: For `Cc1cc(OCC[C@@H]2C[C@@H]2C2CCN(c3nc(C(C)C)no3)CC2)ccc1-n1cnnn1` [Example 124], which EC50 is on record?
A: 2.6 nM

Q: `COc1cc(OCC[C@@H]2C[C@@H]2C2CCN(c3nc(C(C)C)no3)CC2)ccc1-n1cnnn1` [Example 125] was tested. Which EC50 did it give?
A: 11 nM

Q: With `CC(C)c1noc(N2CCC([C@H]3C[C@H]3CCOc3ccc(CC(=O)N4CCCC4)cc3)CC2)n1` [Example 126] as the compound, how does the EC50 read?
A: 1.4 nM

Q: `CC(C)c1noc(N2CCC([C@H]3C[C@H]3CCOc3ccc(CC(=O)N4C[C@@H](F)[C@H](F)C4)cc3)CC2)n1` [Example 127] was tested. Which EC50 did it give?
A: 1.1 nM

Q: How did the EC50 turn out when `CC(C)c1noc(N2CCC([C@H]3C[C@H]3CCOc3ccc(CC(=O)N4CCC4)cc3)CC2)n1` [Example 128] was run?
A: 1.8 nM

Q: `CC(C)c1noc(N2CCC([C@H]3C[C@H]3CCOc3ccc(CC(=O)N4CC(F)C4)cc3)CC2)n1` [Example 129] was tested. Which EC50 did it give?
A: 1.5 nM

Q: For `CC(C)c1noc(N2CCC([C@H]3C[C@H]3CCOc3ccc(S(C)(=O)=O)nc3)CC2)n1` [Example 130], which EC50 is on record?
A: 10.6 nM

Q: With `CC(C)c1noc(N2CCC([C@H]3C[C@H]3CCOc3ccc(CC(=O)N4CC(F)(F)C4)cc3)CC2)n1` [Example 132] as the compound, how does the EC50 read?
A: 2.7 nM

Q: For `CC(C)c1noc(N2CCC([C@H]3C[C@H]3CCOc3ccc(CC(=O)N4CCOCC4)cc3)CC2)n1` [Example 133], which EC50 is on record?
A: 6 nM

Q: For `CC(C)c1noc(N2CCC([C@H]3C[C@H]3CCOc3ccc(CC(=O)N4CC[C@@H](F)C4)cc3)CC2)n1` [Example 134], which EC50 is on record?
A: 5.3 nM

Q: With `COC1CN(C(=O)Cc2ccc(OCC[C@@H]3C[C@@H]3C3CCN(c4nc(C(C)C)no4)CC3)cc2)C1` [Example 135] as the compound, how does the EC50 read?
A: 8.5 nM

Q: With `CCN(CC)C(=O)Cc1ccc(OCC[C@@H]2C[C@@H]2C2CCN(c3nc(C(C)C)no3)CC2)cc1` [Example 136] as the compound, how does the EC50 read?
A: 3.9 nM
